Experimental data as given in PubChem BioAssay (NCI).
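48-hour exposure; five concentrations; linearly interpolated endpoints. GI50 is the concentration that inhibits growth by half. TGI: total growth inhibition.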

Key:
Experiment in all cases: DTP human tumour cell line panel, 48 h
[1] = test system: SF-295 CNS
[2] = test system: SW-620 colon
[3] = test system: 786-0 renal
[4] = test system: EKVX NSCLC
[5] = test system: A549 NSCLC
[6] = test system: U251 CNS
[7] = test system: OVCAR-3 ovarian
[8] = test system: KM12 colon
[9] = test system: OVCAR-5 ovarian
[10] = test system: RPMI-8226 leukemia

| Compound | GI50 [1] | TGI [1] | GI50 [2] | TGI [2] | GI50 [3] | TGI [3] | GI50 [4] | TGI [4] | GI50 [5] | TGI [5] | GI50 [6] | TGI [6] | GI50 [7] | TGI [7] | GI50 [8] | TGI [8] | GI50 [9] | TGI [9] | GI50 [10] | TGI [10] |
| --- | --- | --- | --- | --- | --- | --- | --- | --- | --- | --- | --- | --- | --- | --- | --- | --- | --- | --- | --- | --- |
| CN1CCN(c2ccc(Nc3cc(-c4cccc(-n5ccc6cc(C7CC7)cc(F)c6c5=O)c4CO)cn(C)c3=O)nc2)CC1 | 10.5 µM | 24.2 µM | 4.74 µM | 23.9 µM | 2.01 µM | 4.44 µM | 2.62 µM | 9.11 µM | 5.27 µM | 19.2 µM | 3.47 µM | 14 µM | 3.12 µM | 8.8 µM | 6.16 µM | 31.1 µM | 2.82 µM | 9.75 µM | 3.8 µM | 19 µM |
| COC(=O)c1c2c(c(C)[n+]([O-])c1C)C(=O)C=C(NCc1ccc(F)cc1)C2=O | 0.592 µM | 1.94 µM | 0.344 µM | 1.38 µM | 1.76 µM | 4.39 µM | 0.963 µM | 2.23 µM | 0.794 µM | 3.15 µM | 0.999 µM | 2.62 µM | 0.245 µM | 0.744 µM | 0.357 µM | 2.22 µM | 1.39 µM | 2.88 µM | 1.25 µM | 4.81 µM |
| COCC(OC)C(CC=C(C#N)C#N)OC (stereo not given) |  | > 100 µM |  | > 100 µM |  | > 100 µM |  | > 100 µM |  | > 100 µM |  | > 100 µM |  | > 100 µM |  | > 100 µM |  | > 100 µM |  | > 100 µM |
| COC(=O)c1ccc2c(c1)C(=O)c1c-2n(CCCN=[N+]=[N-])c(=O)c2cc(OC)c(OC)cc12 | > 100 µM | > 100 µM | > 100 µM | > 100 µM | > 100 µM | > 100 µM | > 100 µM | > 100 µM | > 100 µM | > 100 µM | > 100 µM | > 100 µM | > 100 µM | > 100 µM | > 100 µM | > 100 µM | > 100 µM | > 100 µM | > 100 µM | > 100 µM |
| Cc1cc2c(=O)c3ccccc3[nH]c2c(C(N)=O)c1C |  | > 100 µM |  | > 100 µM |  | > 100 µM |  | > 100 µM |  | > 100 µM |  | > 100 µM |  | > 100 µM |  | > 100 µM |  | > 100 µM |  | > 100 µM |
| O=C(NC[C@H](O)CN1CCc2ccccc2C1)c1cc(NC2COC2)ncn1 | 14.7 µM | > 100 µM | 11 µM | 61.7 µM | 12.6 µM | 41.9 µM | 24.8 µM | > 100 µM | 39.5 µM | > 100 µM | 13 µM | > 100 µM | 10.8 µM | 49.1 µM | 16.2 µM | > 100 µM | 36.8 µM | > 100 µM | 4.22 µM | 43.5 µM |
| COc1ccc(OCC(=O)O)c2c1CCCC2=O |  | > 100 µM |  | > 100 µM |  | > 100 µM |  | > 100 µM |  | > 100 µM |  | > 100 µM |  | > 100 µM |  | > 100 µM |  | > 100 µM |  | > 100 µM |
| Cc1nc(Nc2cccnc2)sc1C(=O)/C=C/c1ccc(F)cc1 | 3.09 µM | 18.2 µM | 2.46 µM | 6.46 µM | 2.94 µM | 19.4 µM | 5.15 µM | > 100 µM | 3.15 µM | > 100 µM | 2.95 µM | 8.83 µM | 3.14 µM | 12.8 µM | 2.04 µM | 4.61 µM | 2.78 µM | 23 µM | 2.69 µM | 15.2 µM |
